Results reported in the supplement of paper PMC10883282.

Assays:
Test in all cases: relative viability vs DMSO control (72 h) (fraction); higher = more viable cells
SYO-1 = tested on: SYO-1
In short: (§1)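 Relative viability is percent growth read by ATPLite and averaged over up to triplicate wells. Sarcoma cells were seeded in 384-well plates to reach 80–90% confluence and given 2.5 µl of serially diluted compound after 24 h, from source plates of 10 mM to 0.0002 mM. Incubation lasted 72 h at 37 °C, 5% CO2, with 0.1% DMSO vehicle and a 5 µM positive control, and the data were rescaled so 1 equals full and 0 equals none.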

RD = tested on: RD
In short: as §1

SW684 = tested on: SW684
In short: as §1

SW872 = tested on: SW872
In short: as §1

HS729 = tested on: HS729
In short: as §1

SW1353 = tested on: SW1353
In short: as §1

KHOS-NP = tested on: KHOS-NP
In short: as §1

G401 = tested on: G401
In short: as §1

HT1080 = tested on: HT1080
In short: as §1

RD-ES = tested on: RD-ES
In short: as §1

SK-LMS-1 = tested on: SK-LMS-1
In short: as §1

KHOS-240S = tested on: KHOS-240S
In short: as §1

CCS(=O)(=O)N1CC(CC#N)(n2cc(-c3ncnc4[nH]ccc34)cn2)C1 [Baricitinib]
Conditions | relative viability
G401, 0.00017 µM | 0.955
G401, 0.00051 µM | 0.9564
G401, 0.00152 µM | 0.975
G401, 0.00457 µM | 0.963
G401, 0.01372 µM | 0.948
G401, 0.04115 µM | 0.98
G401, 0.1235 µM | 0.965
G401, 0.3704 µM | 0.961
G401, 1.111 µM | 0.978
G401, 3.333 µM | 0.959
G401, 10 µM | 0.887
HS729, 0.00017 µM | 0.937
HS729, 0.00051 µM | 0.97
HS729, 0.00152 µM | 0.999
HS729, 0.00457 µM | 0.996
HS729, 0.01372 µM | 1
HS729, 0.04115 µM | 0.959
HS729, 0.1235 µM | 0.94
HS729, 0.3704 µM | 0.9518
HS729, 1.111 µM | 0.926
HS729, 3.333 µM | 0.9194
HS729, 10 µM | 0.87
HT1080, 0.00017 µM | 1.05
HT1080, 0.00051 µM | 1.04
HT1080, 0.00152 µM | 1.05
HT1080, 0.00457 µM | 1.04
HT1080, 0.01372 µM | 1.05
HT1080, 0.04115 µM | 1.06
HT1080, 0.1235 µM | 1.024
HT1080, 0.3704 µM | 1.04
HT1080, 1.111 µM | 1.02
HT1080, 3.333 µM | 1.07
HT1080, 10 µM | 1.024
KHOS-240S, 0.00017 µM | 1.035
KHOS-240S, 0.00051 µM | 1.022
KHOS-240S, 0.00152 µM | 1.037
KHOS-240S, 0.00457 µM | 1.04
KHOS-240S, 0.01372 µM | 1.03
KHOS-240S, 0.04115 µM | 1.019
KHOS-240S, 0.1235 µM | 1.05
KHOS-240S, 0.3704 µM | 1.03
KHOS-240S, 1.111 µM | 1.04
KHOS-240S, 3.333 µM | 0.958
KHOS-240S, 10 µM | 0.7777
KHOS-NP, 0.00017 µM | 1.04
KHOS-NP, 0.00051 µM | 1.04
KHOS-NP, 0.00152 µM | 1.052
KHOS-NP, 0.00457 µM | 1.06
KHOS-NP, 0.01372 µM | 1.04
KHOS-NP, 0.04115 µM | 1.04
KHOS-NP, 0.1235 µM | 1.06
KHOS-NP, 0.3704 µM | 1.02
KHOS-NP, 1.111 µM | 1.03
KHOS-NP, 3.333 µM | 0.985
KHOS-NP, 10 µM | 0.906
RD, 0.00017 µM | 1.02
RD, 0.00051 µM | 1.02
RD, 0.00152 µM | 1.03
RD, 0.00457 µM | 1.03
RD, 0.01372 µM | 1.027
RD, 0.04115 µM | 0.991
RD, 0.1235 µM | 0.999
RD, 0.3704 µM | 1.03
RD, 1.111 µM | 1.051
RD, 3.333 µM | 1.12
RD, 10 µM | 1.03
RD-ES, 0.00017 µM | 0.981
RD-ES, 0.00051 µM | 0.9701
RD-ES, 0.00152 µM | 0.947
RD-ES, 0.00457 µM | 0.9683
RD-ES, 0.01372 µM | 0.951
RD-ES, 0.04115 µM | 0.947
RD-ES, 0.1235 µM | 0.956
RD-ES, 0.3704 µM | 0.9847
RD-ES, 1.111 µM | 1.03
RD-ES, 3.333 µM | 1.04
RD-ES, 10 µM | 1.04
SK-LMS-1, 0.00017 µM | 1.06
SK-LMS-1, 0.00051 µM | 1.07
SK-LMS-1, 0.00152 µM | 1.07
SK-LMS-1, 0.00457 µM | 1.03
SK-LMS-1, 0.01372 µM | 1.02
SK-LMS-1, 0.04115 µM | 1.07
SK-LMS-1, 0.1235 µM | 1.06
SK-LMS-1, 0.3704 µM | 1.04
SK-LMS-1, 1.111 µM | 1.06
SK-LMS-1, 3.333 µM | 1.01
SK-LMS-1, 10 µM | 0.878
SW684, 0.00017 µM | 1.06
SW684, 0.00051 µM | 1.04
SW684, 0.00152 µM | 1.12
SW684, 0.00457 µM | 1.09
SW684, 0.01372 µM | 1.13
SW684, 0.04115 µM | 1.07
SW684, 0.1235 µM | 1.09
SW684, 0.3704 µM | 1.03
SW684, 1.111 µM | 1.07
SW684, 3.333 µM | 1.05
SW684, 10 µM | 0.915
SW872, 0.00017 µM | 1.014
SW872, 0.00051 µM | 1.01
SW872, 0.00152 µM | 1.03
SW872, 0.00457 µM | 1.03
SW872, 0.01372 µM | 1.05
SW872, 0.04115 µM | 1.04
SW872, 0.1235 µM | 1.03
SW872, 0.3704 µM | 1.03
SW872, 1.111 µM | 1.05
SW872, 3.333 µM | 1.01
SW872, 10 µM | 0.877
SW1353, 0.00017 µM | 0.952
SW1353, 0.00051 µM | 0.931
SW1353, 0.00152 µM | 0.977
SW1353, 0.00457 µM | 0.975
SW1353, 0.01372 µM | 0.947
SW1353, 0.04115 µM | 0.961
SW1353, 0.1235 µM | 0.953
SW1353, 0.3704 µM | 0.969
SW1353, 1.111 µM | 0.985
SW1353, 3.333 µM | 0.915
SW1353, 10 µM | 0.786
SYO-1, 0.00017 µM | 0.994
SYO-1, 0.00051 µM | 1.01
SYO-1, 0.00152 µM | 1.01
SYO-1, 0.00457 µM | 0.994
SYO-1, 0.01372 µM | 0.999
SYO-1, 0.04115 µM | 0.993
SYO-1, 0.1235 µM | 0.988
SYO-1, 0.3704 µM | 0.985
SYO-1, 1.111 µM | 0.988
SYO-1, 3.333 µM | 0.952
SYO-1, 10 µM | 0.897
